Measurements from the CheMixHub viscosity set.

Experiment: xn = mol fraction of the nth substance listed
Conditions: 101.3 kPa

C1CCCC1 + CCCO
Conditions | viscosity [mPa·s]
298.15 K, x1 = 0.0126 | 1.899
298.15 K, x1 = 0.0784 | 1.708
298.15 K, x1 = 0.1149 | 1.602
298.15 K, x1 = 0.1574 | 1.49
298.15 K, x1 = 0.1979 | 1.385
298.15 K, x1 = 0.2531 | 1.254
298.15 K, x1 = 0.289 | 1.17
298.15 K, x1 = 0.3309 | 1.085
298.15 K, x1 = 0.3663 | 1.017
298.15 K, x1 = 0.3847 | 0.982
298.15 K, x1 = 0.3986 | 0.959
298.15 K, x1 = 0.4161 | 0.924
298.15 K, x1 = 0.4387 | 0.888
298.15 K, x1 = 0.4706 | 0.839
298.15 K, x1 = 0.4885 | 0.807
298.15 K, x1 = 0.5064 | 0.781
298.15 K, x1 = 0.5132 | 0.772
298.15 K, x1 = 0.5396 | 0.739
298.15 K, x1 = 0.5459 | 0.726
298.15 K, x1 = 0.557 | 0.709
298.15 K, x1 = 0.563 | 0.703
298.15 K, x1 = 0.5899 | 0.673
298.15 K, x1 = 0.6188 | 0.639
298.15 K, x1 = 0.6413 | 0.615
298.15 K, x1 = 0.6734 | 0.587
298.15 K, x1 = 0.7116 | 0.552
298.15 K, x1 = 0.7421 | 0.529
298.15 K, x1 = 0.7853 | 0.497
298.15 K, x1 = 0.8171 | 0.478
298.15 K, x1 = 0.8537 | 0.458
298.15 K, x1 = 0.9793 | 0.412
308.15 K, x1 = 0.0566 | 1.511
308.15 K, x1 = 0.0958 | 1.374
308.15 K, x1 = 0.1491 | 1.257
308.15 K, x1 = 0.1968 | 1.105
308.15 K, x1 = 0.2217 | 0.997
308.15 K, x1 = 0.2344 | 0.927
308.15 K, x1 = 0.2399 | 0.886
308.15 K, x1 = 0.2558 | 0.874
308.15 K, x1 = 0.2708 | 0.851
308.15 K, x1 = 0.2943 | 0.815
308.15 K, x1 = 0.3274 | 0.772
308.15 K, x1 = 0.3677 | 0.719
308.15 K, x1 = 0.4171 | 0.659
308.15 K, x1 = 0.4901 | 0.582
308.15 K, x1 = 0.5698 | 0.516
308.15 K, x1 = 0.6573 | 0.457
308.15 K, x1 = 0.7599 | 0.415
308.15 K, x1 = 0.8996 | 0.392
318.15 K, x1 = 0.0747 | 1.139
318.15 K, x1 = 0.1126 | 1.074
318.15 K, x1 = 0.2293 | 0.876
318.15 K, x1 = 0.2845 | 0.769
318.15 K, x1 = 0.3533 | 0.654
318.15 K, x1 = 0.4 | 0.597
318.15 K, x1 = 0.4414 | 0.539
318.15 K, x1 = 0.4892 | 0.491
318.15 K, x1 = 0.4949 | 0.484
318.15 K, x1 = 0.5432 | 0.445
318.15 K, x1 = 0.5458 | 0.443
318.15 K, x1 = 0.5813 | 0.429
318.15 K, x1 = 0.6285 | 0.412
318.15 K, x1 = 0.6942 | 0.407
318.15 K, x1 = 0.7867 | 0.402
318.15 K, x1 = 0.8912 | 0.393

NCCO + CCCO
viscosity [mPa·s]
Conditions | x1 = 0.0998 | x1 = 0.1999 | x1 = 0.3005 | x1 = 0.4 | x1 = 0.5 | x1 = 0.6 | x1 = 0.7 | x1 = 0.8 | x1 = 0.9
303.15 K | 2.09 | 2.56 | 3.17 | 3.97 | 4.94 | 6.22 | 7.7 | 9.64 | 12
313.15 K | 1.66 | 2 | 2.42 | 2.97 | 3.63 | 4.44 | 5.41 | 6.62 | 8.11
323.15 K | 1.35 | 1.59 | 1.92 | 2.3 | 2.75 | 3.31 | 3.93 | 4.73 | 5.69
